# Values joined by “and” are separate entries in the source; they are usually repeats but may differ in a detail not shown here. Identical values can stand only once. Inconclusive results and toxic doses are left out.
# Test system: P388 leukemia ip, CD2F1 mice, survival T/C
# Assay: NCI In Vivo Anticancer Drug Screen. Data for tumor model P388 Leukemia (intraperitoneal) in CD2F1 (CDF1) mice
# Conditions: endpoint: median survival time, higher = longer survival
# Procedure, shortened: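 Mice carrying the transplanted tumor received test compound or vehicle. Survival was recorded in each group, and the value is the treated-group measurement divided by that of the vehicle-treated control group.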
# [1] = dose: 25.0 mg/kg/injection, schedule: Q01DX009 (ip), vehicle: saline with Tween-80
# [2] = dose: 50.0 mg/kg/injection, schedule: Q01DX009 (ip), vehicle: saline with Tween-80
# [3] = dose: 50.0 mg/kg/injection, schedule: Q01DX005 (ip), vehicle: Klucel (hydroxypropylcellulose) (HPC)
# [4] = dose: 100.0 mg/kg/injection, schedule: Q01DX005 (ip), vehicle: Klucel (hydroxypropylcellulose) (HPC)
# [5] = dose: 200.0 mg/kg/injection, schedule: Q01DX005 (ip), vehicle: Klucel (hydroxypropylcellulose) (HPC)
# [6] = dose: 50.0 mg/kg/injection, schedule: Q01DX005 (ip), vehicle: saline with Tween-80
# [7] = dose: 100.0 mg/kg/injection, schedule: Q01DX005 (ip), vehicle: saline with Tween-80
# [8] = dose: 200.0 mg/kg/injection, schedule: Q01DX005 (ip), vehicle: saline with Tween-80
# [9] = dose: 100.0 mg/kg/injection, schedule: Q01DX009 (ip), vehicle: saline with Tween-80
# [10] = dose: 200.0 mg/kg/injection, schedule: Q01DX009 (ip), vehicle: saline with Tween-80
# [11] = dose: 400.0 mg/kg/injection, schedule: Q01DX009 (ip), vehicle: saline with Tween-80
# [12] = dose: 100.0 mg/kg/injection, schedule: Q01DX001 (ip), vehicle: Klucel (hydroxypropylcellulose) (HPC)
# [13] = dose: 200.0 mg/kg/injection, schedule: Q01DX001 (ip), vehicle: Klucel (hydroxypropylcellulose) (HPC)
# [14] = dose: 400.0 mg/kg/injection, schedule: Q01DX001 (ip), vehicle: Klucel (hydroxypropylcellulose) (HPC)
# [15] = dose: 50.0 mg/kg/injection, schedule: Q01DX009 (ip), vehicle: saline
# [16] = dose: 100.0 mg/kg/injection, schedule: Q01DX009 (ip), vehicle: saline
# [17] = dose: 200.0 mg/kg/injection, schedule: Q01DX009 (ip), vehicle: saline
# [18] = dose: 50.0 mg/kg/injection, schedule: Q01DX009 (ip), vehicle: Klucel (hydroxypropylcellulose) (HPC)
# [19] = dose: 100.0 mg/kg/injection, schedule: Q01DX009 (ip), vehicle: Klucel (hydroxypropylcellulose) (HPC)
# [20] = dose: 200.0 mg/kg/injection, schedule: Q01DX009 (ip), vehicle: Klucel (hydroxypropylcellulose) (HPC)
# [21] = dose: 12.5 mg/kg/injection, schedule: Q01DX009 (ip), vehicle: saline
# [22] = dose: 25.0 mg/kg/injection, schedule: Q01DX009 (ip), vehicle: saline
smiles,measurement,setting,value
COc1ccc(C2CC(=O)N(CN3CCN(c4ccccc4)CC3)C(=O)C2)cc1,T/C,"dose: 12.5 mg/kg/injection, schedule: Q01DX009 (ip), vehicle: saline with Tween-80",98 % of control
same,T/C,[1],93 % of control
same,T/C,[2],87 % of control and 92 % of control
c1cc[c]([Ge]([O][Ge]([c]2ccccc2)[c]2ccccc2)[c]2ccccc2)cc1.c1cc[c]([Ge]([O][Ge]([c]2ccccc2)[c]2ccccc2)[c]2ccccc2)cc1,T/C,[3],89 % of control
same,T/C,[4],91 % of control
same,T/C,[5],89 % of control
CC1(C)CSCC(C)(C)C2(C=CC=CC=N2)C1=O (stereo not given),T/C,[3],107 % of control
same,T/C,[4],115 % of control
COC1(C)CNc2ccccc2C(=O)N1 (stereo not given),T/C,[6],96 % of control
same,T/C,[7],98 % of control
same,T/C,[8],94 % of control
CCOc1cc2c(cc1C(C)c1ccccc1)OCO2 (stereo not given),T/C,[6],108 % of control
same,T/C,[7],101 % of control
same,T/C,[8],101 % of control
NC(C(=O)O)C(F)C(=O)O (stereo not given),T/C,"dose: 10.0 mg/kg/injection, schedule: Q01DX009 (ip), vehicle: saline",109 % of control
same,T/C,"dose: 20.0 mg/kg/injection, schedule: Q01DX009 (ip), vehicle: saline",106 % of control
same,T/C,"dose: 40.0 mg/kg/injection, schedule: Q01DX009 (ip), vehicle: saline",100 % of control
CC(C)C[N+]1(Cc2ccc(Cl)c(Cl)c2)CCOCC1,T/C,"dose: 100.0 mg/kg/injection, schedule: Q04DX002 (ip), vehicle: saline with Tween-80",99 % of control
same,T/C,"dose: 200.0 mg/kg/injection, schedule: Q04DX002 (ip), vehicle: saline with Tween-80",108 % of control
COc1cc(-n2c(C)nc3ncn(-c4ccccc4)c3c2=O)cc(OC)c1OC,T/C,[3],98 % of control
same,T/C,[4],102 % of control
same,T/C,[5],105 % of control
CC[C@H](CC[C@@H](C)C1CC[C@H]2[C@@H]3CC=C4C[C@@H](OP(=O)(N5CC5)N5CC5)CC[C@]4(C)[C@H]3CC[C@]12C)C(C)C (stereo not given in full),T/C,[9],152 % of control
same,T/C,[10],163 % of control and 171 % of control
same,T/C,[11],98 % of control
Cc1ccc(OP(=O)(Oc2ccc(C)cc2)Oc2ccc(C)cc2)cc1.Cc1ccc(OP(=O)(Oc2ccc(C)cc2)Oc2ccc(C)cc2)cc1.[Cl][Cr]([Cl])[Cl],T/C,[12],100 % of control
same,T/C,[13],95 % of control
same,T/C,[14],99 % of control
Nc1ncnc2c1cnn2C1OC(CO)C(O)C1O (stereo not given),T/C,"dose: 16.5 mg/kg/injection, schedule: Q01DX009 (ip), vehicle: saline with Tween-80",152 % of control
same,T/C,[1],154 % of control
same,T/C,"dose: 37.5 mg/kg/injection, schedule: Q01DX009 (ip), vehicle: saline with Tween-80",124 % of control
ClCc1nnn(Cc2ccccc2)c1CCl,T/C,[15],102 % of control
same,T/C,[16],89 % of control
same,T/C,[17],92 % of control
CC/C(=C(\CC)c1ccc(OCCN(C)C)cc1)c1ccc(OCCN(C)C)cc1,T/C,"dose: 6.25 mg/kg/injection, schedule: Q01DX005 (ip), vehicle: saline",104 % of control
same,T/C,"dose: 12.5 mg/kg/injection, schedule: Q01DX005 (ip), vehicle: saline",98 % of control
CCCCCCCCCCCCCCCC(=O)OCC(COP(=O)(O)OCC(COC(=O)CCCCCCCCCCCCCCC)OC(=O)CCCCCCCCCCCCCCC)OC(=O)CCCCCCCCCCCCCCC (stereo not given),T/C,[15],98 % of control
same,T/C,[16],100 % of control
same,T/C,[17],101 % of control
C1CC(N2CC2)CCC1N1CC1 (stereo not given),T/C,"dose: 1.56 mg/kg/injection, schedule: Q01DX009 (ip), vehicle: saline",182 % of control
same,T/C,"dose: 3.12 mg/kg/injection, schedule: Q01DX009 (ip), vehicle: saline",237 % of control
COC(=O)C1=C(C(=O)OC)C2C=CC1C1C(Cl)C(Cl)C21 (stereo not given),T/C,"dose: 7.5 mg/kg/injection, schedule: Q01DX009 (ip), vehicle: saline with Tween-80",103 % of control
same,T/C,"dose: 15.0 mg/kg/injection, schedule: Q01DX009 (ip), vehicle: saline with Tween-80",112 % of control
same,T/C,"dose: 30.0 mg/kg/injection, schedule: Q01DX009 (ip), vehicle: saline with Tween-80",115 % of control
same,T/C,[9],95 % of control
same,T/C,[10],90 % of control
NC(CSCc1ccccc1)C(=O)Nc1ccc([N+](=O)[O-])cc1 (stereo not given),T/C,[3],110 % of control
same,T/C,[4],101 % of control
same,T/C,[5],104 % of control
O=S1(=O)CCN(CCCc2ccccc2)CC1,T/C,[18],102 % of control
same,T/C,[19],105 % of control
same,T/C,[20],104 % of control
O=S1(=O)CC(N2CCCCC2)C=C(c2ccccc2)O1 (stereo not given),T/C,[2],103 % of control
same,T/C,[9],98 % of control
same,T/C,[10],95 % of control
N#CC(C#N)C(c1ccccc1)c1cccc2ccccc12 (stereo not given),T/C,[12],101 % of control
same,T/C,[13],109 % of control
same,T/C,[14],104 % of control
O=C(CNC(=O)Nc1cccc([N+](=O)[O-])c1)NNC(=O)Nc1ccccc1F,T/C,"dose: 60.0 mg/kg/injection, schedule: Q01DX005 (ip), vehicle: saline with Tween-80",101 % of control
same,T/C,"dose: 120.0 mg/kg/injection, schedule: Q01DX005 (ip), vehicle: saline with Tween-80",101 % of control
same,T/C,"dose: 240.0 mg/kg/injection, schedule: Q01DX005 (ip), vehicle: saline with Tween-80",99 % of control
O=[N+]([O-])c1cc2[nH]cnc2c([N+](=O)[O-])c1NCCO,T/C,[2],110 % of control
same,T/C,[9],108 % of control
same,T/C,[10],94 % of control
c1ccc(N=N/C(=N\Nc2ccccc2)SCCS/C(N=Nc2ccccc2)=N/Nc2ccccc2)cc1,T/C,[1],98 % of control and 97 % of control
same,T/C,[2],93 % of control and 97 % of control
same,T/C,[9],111 % of control and 92 % of control
same,T/C,[10],98 % of control
COc1ccc([I+]c2ccc(OC)cc2)cc1,T/C,"dose: 3.0 mg/kg/injection, schedule: Q01DX009 (ip), vehicle: saline with Tween-80",104 % of control
same,T/C,"dose: 6.0 mg/kg/injection, schedule: Q01DX009 (ip), vehicle: saline with Tween-80",120 % of control
CC(C)=N/N=C1\C(OC(=O)Nc2ccccc2)=Nc2ccccc21,T/C,[6],96 % of control
same,T/C,[7],95 % of control
same,T/C,[8],90 % of control
CC(=NCc1ccccc1)c1ccccc1O,T/C,[18],99 % of control
same,T/C,[2],106 % of control
same,T/C,[19],93 % of control
same,T/C,[9],116 % of control
same,T/C,[20],92 % of control
same,T/C,[10],98 % of control
same,T/C,[11],109 % of control
O=[N+]([O-])c1nccn1CC(O)CO (stereo not given),T/C,[21],103 % of control and 116 % of control
same,T/C,[22],101 % of control and 121 % of control
same,T/C,[15],103 % of control and 116 % of control and 98 % of control
same,T/C,[16],102 % of control and 106 % of control and 116 % of control
same,T/C,[17],104 % of control and 107 % of control and 121 % of control
same,T/C,"dose: 360.0 mg/kg/injection, schedule: Q01DX001 (ip), vehicle: saline",101 % of control and 102 % of control
same,T/C,"dose: 400.0 mg/kg/injection, schedule: Q01DX009 (ip), vehicle: saline",102 % of control and 106 % of control
same,T/C,"dose: 600.0 mg/kg/injection, schedule: Q01DX001 (ip), vehicle: saline",100 % of control and 102 % of control
same,T/C,"dose: 1000.0 mg/kg/injection, schedule: Q01DX001 (ip), vehicle: saline",101 % of control and 104 % of control
CC1=CC(C)(C)Nc2ccccc21,T/C,[19],108 % of control
same,T/C,[20],114 % of control
same,T/C,"dose: 400.0 mg/kg/injection, schedule: Q01DX009 (ip), vehicle: Klucel (hydroxypropylcellulose) (HPC)",110 % of control
CSc1ccc(C)cc1C(C)=O,T/C,"dose: 50.0 mg/kg/injection, schedule: Q01DX005 (ip), vehicle: acetone",93 % of control
same,T/C,"dose: 100.0 mg/kg/injection, schedule: Q01DX005 (ip), vehicle: acetone",99 % of control
same,T/C,"dose: 200.0 mg/kg/injection, schedule: Q01DX005 (ip), vehicle: acetone",100 % of control
CC(=O)SC12CCCN1C(=O)C1(SC(C)=O)CCCN1C2=O (stereo not given),T/C,"dose: 6.25 mg/kg/injection, schedule: Q01DX009 (ip), vehicle: saline",98 % of control
same,T/C,[21],104 % of control
same,T/C,[22],104 % of control
same,T/C,[15],103 % of control
same,T/C,[16],111 % of control

# — PubChem BioAssay AID330 (DTP/NCI, 2004)
